Measurements from PubChem BioAssay (NCI).
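Values below derive from 48-hour exposures of cells grown in 96-well plates, with endpoints linearly interpolated between the two concentrations bracketing the appropriate inhibition level. Definition used: TGI = concentration required for complete inhibition of growth.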

Tests used:
Test in all cases: NCI-60 cell line screen, 48 h
786-0 renal = system: 786-0 renal
BT-549 breast = system: BT-549 breast
CCRF-CEM leukemia = system: CCRF-CEM leukemia
DU-145 prostate = system: DU-145 prostate
EKVX NSCLC = system: EKVX NSCLC
HOP-92 NSCLC = system: HOP-92 NSCLC
IGROV1 ovarian = system: IGROV1 ovarian
LOX IMVI melanoma = system: LOX IMVI melanoma
MALME-3M melanoma = system: MALME-3M melanoma
MCF7 breast = system: MCF7 breast
MDA-N = system: MDA-N
OVCAR-5 ovarian = system: OVCAR-5 ovarian
OVCAR-8 ovarian = system: OVCAR-8 ovarian
SK-MEL-2 melanoma = system: SK-MEL-2 melanoma
SK-MEL-28 melanoma = system: SK-MEL-28 melanoma
SN12C renal = system: SN12C renal
SNB-75 CNS = system: SNB-75 CNS
SR leukemia = system: SR leukemia
TK-10 renal = system: TK-10 renal
UO-31 renal = system: UO-31 renal

SMILES: COc1cccc(Nc2nc(N)nc(N)c2N)c1
- TGI (786-0 renal): > 100 µM
- TGI (BT-549 breast): > 100 µM
- TGI (CCRF-CEM leukemia): 52.7 µM
- TGI (DU-145 prostate): > 100 µM
- TGI (EKVX NSCLC): > 100 µM
- TGI (HOP-92 NSCLC): > 100 µM
- TGI (IGROV1 ovarian): > 100 µM
- TGI (LOX IMVI melanoma): 40.2 µM
- TGI (MALME-3M melanoma): > 100 µM
- TGI (MCF7 breast): 95 µM
- TGI (MDA-N): 36.8 µM
- TGI (OVCAR-5 ovarian): > 100 µM
- TGI (OVCAR-8 ovarian): > 100 µM
- TGI (SK-MEL-2 melanoma): > 100 µM
- TGI (SK-MEL-28 melanoma): > 100 µM
- TGI (SN12C renal): 37.8 µM
- TGI (SNB-75 CNS): > 100 µM
- TGI (SR leukemia): 49.6 µM
- TGI (TK-10 renal): > 100 µM
- TGI (UO-31 renal): > 100 µM
